The structures appear in SMILES notation.

Inhibition data for one molecule are collected here from paper PMC7180948, “New Insights into 4-Anilinoquinazolines as Inhibitors of Cardiac Troponin I–Interacting Kinase (TNNi3K)” (Molecules, 2020).

Holding throughout (assay): biochemical
Common to all, as to parameters: KINOMEscan competition binding panel (Eurofins DiscoverX), single concentration, % inhibition

One experiment concerns the target GRK4 (Homo sapiens, UniProt P32298). Conditions: read-out: 7 at 1 µM % inhibition. The method in brief:
(§1)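 A single 1 µM concentration of each compound is screened across upwards of 400 human kinases using the KINOMEscan format.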

Another experiment has as its target T1, MST4 (Homo sapiens, UniProt Q9P289).
T1 construct: gene STK26
Conditions: read-out: 7 at 1 µM % inhibition. The method in brief: as §1

Another experiment concerns the target MAK (Homo sapiens, UniProt P20794). Conditions: read-out: 7 at 1 µM % inhibition. The method in brief: as §1
The target of another experiment is WNK4 (Homo sapiens, UniProt Q96J92). Conditions: read-out: 7 at 1 µM % inhibition. The method in brief: as §1
The next experiment concerns the target CSNK2A2 (Homo sapiens, UniProt P19784). Conditions: read-out: 7 at 1 µM % inhibition. In outline:
as §1

Another experiment has as its target CSNK1G2 (Homo sapiens, UniProt P78368). The settings on record: read-out: 7 at 1 µM % inhibition. The method in brief:
as §1

A further experiment has as its target MTOR (Homo sapiens, UniProt P42345). The settings on record: read-out: 7 at 1 µM % inhibition. The method in brief: as §1
The next experiment addresses MET(Y1235D) (Homo sapiens, UniProt P08581, Y1235D). Conditions: read-out: 7 at 1 µM % inhibition. The method in brief: as §1
The target of the next experiment is T2, BRK (Homo sapiens, UniProt Q13882).
T2 construct: gene PTK6
T2 sequence (Q13882 whole entry): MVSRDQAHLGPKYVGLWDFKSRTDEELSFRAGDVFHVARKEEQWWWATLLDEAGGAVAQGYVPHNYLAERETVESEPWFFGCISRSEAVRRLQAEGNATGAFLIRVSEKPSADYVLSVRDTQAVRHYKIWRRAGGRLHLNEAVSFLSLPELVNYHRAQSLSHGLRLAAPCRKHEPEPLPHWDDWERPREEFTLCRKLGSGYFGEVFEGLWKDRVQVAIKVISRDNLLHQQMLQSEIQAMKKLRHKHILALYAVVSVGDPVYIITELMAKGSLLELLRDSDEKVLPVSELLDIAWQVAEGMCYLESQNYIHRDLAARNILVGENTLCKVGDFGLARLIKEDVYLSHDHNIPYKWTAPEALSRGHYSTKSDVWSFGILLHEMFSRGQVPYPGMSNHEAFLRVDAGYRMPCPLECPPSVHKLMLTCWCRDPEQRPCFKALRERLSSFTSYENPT
The settings on record: read-out: 7 at 1 µM % inhibition. The method in brief: as §1

For the next experiment, the target named is DMPK (Homo sapiens, UniProt Q09013). The settings on record: read-out: 7 at 1 µM % inhibition. In outline: as §1
Experiment [1] deals with T3, ABL1(F317L)-nonphosphorylated (Homo sapiens, UniProt P00519, F317L).
T3 construct: nonphosphorylated
Conditions: read-out: 7 at 1 µM % inhibition. The method in brief:
as §1

In another experiment the target is CHEK1 (Homo sapiens, UniProt O14757). Conditions: read-out: 7 at 1 µM % inhibition. In outline: as §1
The target in another experiment is SGK3 (Homo sapiens, UniProt Q96BR1). The settings on record: read-out: 7 at 1 µM % inhibition. In outline:
as §1

The next experiment concerns the target T4, PFCDPK1(P.falciparum) (Plasmodium falciparum, UniProt P62344).
T4 construct: gene CDPK1
The settings on record: read-out: 7 at 1 µM % inhibition (pathogen kinases). In outline:
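KINOMEscan binding panel of >400 kinases, run by Eurofins DiscoverX, with compounds tested at a single concentration of 1 µM.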

The target in a further experiment is NEK6 (Homo sapiens, UniProt Q9HC98). The settings on record: read-out: 7 at 1 µM % inhibition. The method in brief: as §1
Sequence of NEK6 (Q9HC98 whole entry): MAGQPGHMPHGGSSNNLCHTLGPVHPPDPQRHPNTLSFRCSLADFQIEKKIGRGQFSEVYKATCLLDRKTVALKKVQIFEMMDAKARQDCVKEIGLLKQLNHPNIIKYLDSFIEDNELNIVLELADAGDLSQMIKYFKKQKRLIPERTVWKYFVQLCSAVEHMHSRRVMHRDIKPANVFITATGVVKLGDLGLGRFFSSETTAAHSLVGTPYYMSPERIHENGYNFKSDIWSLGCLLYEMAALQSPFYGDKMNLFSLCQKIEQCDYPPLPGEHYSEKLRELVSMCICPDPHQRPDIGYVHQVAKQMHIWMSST
The target in another experiment is SRPK3 (Homo sapiens, UniProt Q9UPE1). Conditions: read-out: 7 at 1 µM % inhibition. The method in brief:
as §1

The next experiment concerns the target KIT(L576P) (Homo sapiens, UniProt P10721, L576P). The settings on record: read-out: 7 at 1 µM % inhibition. The method in brief:
as §1

A further experiment has as its target BRAF(V600E) (Homo sapiens, UniProt P15056, V600E). Conditions: read-out: 7 at 1 µM % inhibition. In outline:
as §1

The target of another experiment is T5, CDK4-cyclinD3 (Homo sapiens, UniProt P11802).
T5 construct: cyclinD3
T5 sequence (P11802 whole entry): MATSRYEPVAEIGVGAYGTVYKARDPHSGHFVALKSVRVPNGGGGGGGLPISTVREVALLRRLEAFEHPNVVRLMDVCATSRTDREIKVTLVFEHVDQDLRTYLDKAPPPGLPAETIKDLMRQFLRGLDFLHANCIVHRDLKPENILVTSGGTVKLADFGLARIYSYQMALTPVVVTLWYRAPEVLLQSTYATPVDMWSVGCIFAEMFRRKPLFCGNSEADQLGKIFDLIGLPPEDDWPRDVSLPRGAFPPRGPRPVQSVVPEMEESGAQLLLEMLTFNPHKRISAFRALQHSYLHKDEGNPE
T5 sequence (P30281 whole entry partner): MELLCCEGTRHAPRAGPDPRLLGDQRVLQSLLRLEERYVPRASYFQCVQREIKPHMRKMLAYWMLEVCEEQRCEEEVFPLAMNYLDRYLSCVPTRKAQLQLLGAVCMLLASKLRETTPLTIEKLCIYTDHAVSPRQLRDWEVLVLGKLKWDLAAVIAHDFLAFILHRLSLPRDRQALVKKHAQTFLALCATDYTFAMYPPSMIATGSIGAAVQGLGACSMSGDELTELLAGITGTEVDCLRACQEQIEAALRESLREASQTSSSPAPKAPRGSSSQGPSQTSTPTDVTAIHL
The settings on record: read-out: 7 at 1 µM % inhibition. The method in brief: as §1

The target of a further experiment is T6, IKK-alpha (Homo sapiens, UniProt O15111).
T6 construct: gene CHUK
T6 sequence (O15111 whole entry): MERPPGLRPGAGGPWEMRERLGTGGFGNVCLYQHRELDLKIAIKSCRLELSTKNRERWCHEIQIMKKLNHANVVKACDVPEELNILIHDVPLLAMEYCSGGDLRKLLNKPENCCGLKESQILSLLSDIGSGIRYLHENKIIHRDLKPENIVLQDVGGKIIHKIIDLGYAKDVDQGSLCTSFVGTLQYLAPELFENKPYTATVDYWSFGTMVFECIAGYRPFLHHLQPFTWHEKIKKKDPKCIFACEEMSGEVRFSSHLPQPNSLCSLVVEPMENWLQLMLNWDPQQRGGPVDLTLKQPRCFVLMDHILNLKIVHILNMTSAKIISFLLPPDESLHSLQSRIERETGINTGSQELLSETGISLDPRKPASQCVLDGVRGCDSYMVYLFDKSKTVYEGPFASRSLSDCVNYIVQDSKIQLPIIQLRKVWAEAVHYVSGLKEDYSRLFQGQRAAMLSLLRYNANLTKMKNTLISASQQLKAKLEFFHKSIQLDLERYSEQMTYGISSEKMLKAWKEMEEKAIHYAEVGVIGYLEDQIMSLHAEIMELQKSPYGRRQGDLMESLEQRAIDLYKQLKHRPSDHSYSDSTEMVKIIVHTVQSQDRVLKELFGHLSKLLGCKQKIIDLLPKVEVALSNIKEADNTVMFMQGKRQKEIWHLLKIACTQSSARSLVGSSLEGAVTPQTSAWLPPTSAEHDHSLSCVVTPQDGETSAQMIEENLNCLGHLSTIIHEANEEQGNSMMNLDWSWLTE
Conditions: read-out: 7 at 1 µM % inhibition. The method in brief:
as §1

For another experiment, the target named is AURKC (Homo sapiens, UniProt Q9UQB9). The settings on record: read-out: 7 at 1 µM % inhibition. In outline: as §1
In experiment [2] the target is T7, ABL1(T315I)-phosphorylated (Homo sapiens, UniProt P00519, T315I).
T7 construct: phosphorylated
Conditions: read-out: 7 at 1 µM % inhibition. The method in brief: as §1

The target in another experiment is FRK (Homo sapiens, UniProt P42685). The settings on record: read-out: 7 at 1 µM % inhibition. The method in brief:
as §1

The next experiment deals with T8, MEK2 (Homo sapiens, UniProt P36507).
T8 construct: gene MAP2K2
Conditions: read-out: 7 at 1 µM % inhibition. In outline: as §1

Sequence of KIT(L576P) (P10721 whole entry L576P): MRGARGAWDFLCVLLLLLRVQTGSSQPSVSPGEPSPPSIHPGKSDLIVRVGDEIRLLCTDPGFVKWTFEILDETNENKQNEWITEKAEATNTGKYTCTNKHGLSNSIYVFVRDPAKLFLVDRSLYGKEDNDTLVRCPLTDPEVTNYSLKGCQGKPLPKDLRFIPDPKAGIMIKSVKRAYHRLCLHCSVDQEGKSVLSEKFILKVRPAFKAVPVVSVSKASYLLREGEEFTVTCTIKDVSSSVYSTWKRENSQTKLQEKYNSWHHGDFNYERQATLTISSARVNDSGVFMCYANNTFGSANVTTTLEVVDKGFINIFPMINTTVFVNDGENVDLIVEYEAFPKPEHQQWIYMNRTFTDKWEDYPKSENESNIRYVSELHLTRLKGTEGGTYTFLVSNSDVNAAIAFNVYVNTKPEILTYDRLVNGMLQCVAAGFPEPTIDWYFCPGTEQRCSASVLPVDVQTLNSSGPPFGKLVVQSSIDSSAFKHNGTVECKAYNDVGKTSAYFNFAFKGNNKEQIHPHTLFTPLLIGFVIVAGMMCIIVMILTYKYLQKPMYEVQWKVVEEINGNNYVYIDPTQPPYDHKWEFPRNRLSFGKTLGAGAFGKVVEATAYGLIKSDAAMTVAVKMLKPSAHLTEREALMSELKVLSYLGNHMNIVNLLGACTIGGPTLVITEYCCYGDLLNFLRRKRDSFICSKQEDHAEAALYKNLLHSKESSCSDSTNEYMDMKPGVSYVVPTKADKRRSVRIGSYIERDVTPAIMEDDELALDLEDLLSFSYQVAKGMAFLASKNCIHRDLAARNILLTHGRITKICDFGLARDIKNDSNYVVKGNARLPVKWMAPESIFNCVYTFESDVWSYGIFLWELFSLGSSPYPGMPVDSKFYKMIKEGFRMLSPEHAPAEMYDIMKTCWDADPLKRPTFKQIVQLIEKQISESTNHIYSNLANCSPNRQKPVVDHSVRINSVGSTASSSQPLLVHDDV
Sequence of SRPK3 (Q9UPE1 whole entry): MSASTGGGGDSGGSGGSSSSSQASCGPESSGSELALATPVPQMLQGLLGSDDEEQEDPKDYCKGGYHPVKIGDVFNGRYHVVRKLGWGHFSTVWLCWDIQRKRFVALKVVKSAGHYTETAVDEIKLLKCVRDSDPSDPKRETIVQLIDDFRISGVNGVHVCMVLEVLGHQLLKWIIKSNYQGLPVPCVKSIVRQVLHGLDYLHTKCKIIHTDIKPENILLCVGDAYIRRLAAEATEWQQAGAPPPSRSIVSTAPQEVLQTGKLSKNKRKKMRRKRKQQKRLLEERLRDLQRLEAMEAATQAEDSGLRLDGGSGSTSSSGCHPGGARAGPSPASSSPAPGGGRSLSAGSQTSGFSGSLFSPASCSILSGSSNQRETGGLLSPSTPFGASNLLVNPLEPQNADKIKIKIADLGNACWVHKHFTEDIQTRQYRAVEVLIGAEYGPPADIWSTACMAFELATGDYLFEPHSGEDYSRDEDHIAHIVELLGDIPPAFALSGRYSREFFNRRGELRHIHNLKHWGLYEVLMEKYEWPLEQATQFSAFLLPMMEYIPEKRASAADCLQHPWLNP
Sequence of BRAF(V600E) (P15056 whole entry V600E): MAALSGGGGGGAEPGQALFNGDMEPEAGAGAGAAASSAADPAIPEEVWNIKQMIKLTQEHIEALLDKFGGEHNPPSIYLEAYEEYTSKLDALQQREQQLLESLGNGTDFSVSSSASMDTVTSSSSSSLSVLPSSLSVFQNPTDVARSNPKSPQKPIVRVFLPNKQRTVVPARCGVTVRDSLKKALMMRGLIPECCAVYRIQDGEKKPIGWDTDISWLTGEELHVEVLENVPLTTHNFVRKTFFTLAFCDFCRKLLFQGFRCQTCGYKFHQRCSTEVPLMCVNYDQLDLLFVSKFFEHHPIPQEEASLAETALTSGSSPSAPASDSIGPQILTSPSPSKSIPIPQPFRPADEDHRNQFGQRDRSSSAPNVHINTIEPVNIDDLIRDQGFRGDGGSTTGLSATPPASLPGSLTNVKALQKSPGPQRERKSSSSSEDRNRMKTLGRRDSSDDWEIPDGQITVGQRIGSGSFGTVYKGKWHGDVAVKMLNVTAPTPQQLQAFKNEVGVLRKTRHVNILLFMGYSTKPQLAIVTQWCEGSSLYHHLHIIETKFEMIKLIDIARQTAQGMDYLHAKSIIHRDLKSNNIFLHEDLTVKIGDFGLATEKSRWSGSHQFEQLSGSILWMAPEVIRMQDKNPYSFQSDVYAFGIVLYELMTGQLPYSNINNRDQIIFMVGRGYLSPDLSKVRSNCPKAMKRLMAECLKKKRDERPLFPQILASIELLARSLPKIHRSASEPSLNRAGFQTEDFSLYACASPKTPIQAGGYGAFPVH
Sequence of SGK3 (Q96BR1 whole entry): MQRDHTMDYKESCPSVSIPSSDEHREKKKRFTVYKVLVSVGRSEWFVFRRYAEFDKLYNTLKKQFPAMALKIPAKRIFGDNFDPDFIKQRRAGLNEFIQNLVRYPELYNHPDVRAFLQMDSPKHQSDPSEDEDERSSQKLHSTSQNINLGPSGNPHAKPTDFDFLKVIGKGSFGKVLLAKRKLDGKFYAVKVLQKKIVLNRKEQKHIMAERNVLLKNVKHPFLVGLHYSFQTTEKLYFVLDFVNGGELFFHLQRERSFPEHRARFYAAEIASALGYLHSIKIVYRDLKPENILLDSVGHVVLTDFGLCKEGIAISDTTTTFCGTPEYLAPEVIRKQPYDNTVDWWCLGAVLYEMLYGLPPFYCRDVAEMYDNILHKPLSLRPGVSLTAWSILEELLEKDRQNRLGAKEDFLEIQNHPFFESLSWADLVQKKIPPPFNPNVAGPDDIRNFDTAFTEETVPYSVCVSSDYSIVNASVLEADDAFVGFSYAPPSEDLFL

The term inhibition denotes the change of the read-out against control, counted positive when it falls. Take `CNS(=O)(=O)c1ccc(N(C)C)c(Nc2ncnc3cc(OC)c(OC)cc23)c1` [compound 7, 3-((6,7-dimethoxyquinazolin-4-yl)amino)-4-(dimethylamino)-N-methylbenzenesulfonamide]: the inhibition at 1 µM on GRK4 came to 0%; at MST4, 21%; at MAK, 0%; at WNK4, 0%; on CSNK2A2, 13%; at CSNK1G2 it was 0%. Moreover, the inhibition at 1 µM is 0% on MTOR; 33% at MET(Y1235D); 0% on BRK; 0% at DMPK; 29% in experiment [1]; 0% on CHEK1. Besides, the inhibition at 1 µM came to 1% at SGK3; 96.3% at PFCDPK1(P.falciparum); 0% on NEK6; 0% on SRPK3; 49% on KIT(L576P); 83% at BRAF(V600E). The inhibition at 1 µM at CDK4-cyclinD3 amounted to 37%; at IKK-alpha, 68%; on AURKC, 0%; in experiment [2] it was 0%; on FRK, 0%; on MEK2, 25%.
